Converted amounts (≈) assume the structure as drawn.
Columns and labels:
Cryptococcus neoformans = assay: Antifungal activity against Cryptococcus neoformans IFRC 340 incubated for 24 hrs by broth microdilution method; format: functional
Candida albicans [1] = assay: Antifungal activity against Candida albicans CMRC 192 incubated for 24 hrs by broth microdilution method; format: functional
Candida parapsilosis = assay: Antifungal activity against Candida parapsilosis ATCC 22019 incubated for 24 hrs by broth microdilution method; format: functional; conditions: Lodderomyces parapsilosis
Candida albicans [2] = assay: Antifungal activity against Candida albicans CMRC 19 incubated for 24 hrs by broth microdilution method; format: functional
Candida albicans [3] = assay: Antifungal activity against Candida albicans FDC 151 incubated for 24 hrs by broth microdilution method; format: functional
Nakaseomyces glabratus [4] = assay: Antifungal activity against Candida glabrata CMRC 89 incubated for 24 hrs by broth microdilution method; format: functional
Nakaseomyces glabratus [5] = assay: Antifungal activity against Candida glabrata FDC 192 incubated for 24 hrs by broth microdilution method; format: functional
Candida tropicalis = assay: Antifungal activity against Candida tropicalis FDC 138 incubated for 24 hrs by broth microdilution method; format: functional
BEAS-2B = assay: Cytotoxicity against human BEAS-2B cells assessed as cell viability at 25 ug/ml incubated for 48 hrs by MTT assay; format: toxicity, cell-based; conditions: dose 25 µg/ml
HepG2 = assay: Cytotoxicity against human HepG2 cells assessed as cell viability at 25 ug/ml incubated for 48 hrs by MTT assay; format: toxicity, cell-based; conditions: hepg2, 48 h, dose 25 µg/ml

| SMILES | MIC (Cryptococcus neoformans) [µg/mL] | MIC (Candida albicans [1]) [µg/mL] | MIC (Candida parapsilosis) [µg/mL] | MIC (Candida albicans [2]) [µg/mL] | MIC (Candida albicans [3]) [µg/mL] | MIC (Nakaseomyces glabratus [4]) [µg/mL] | MIC (Nakaseomyces glabratus [5]) [µg/mL] | MIC (Candida tropicalis) [µg/mL] | Activity (BEAS-2B) | Activity (HepG2) |
| --- | --- | --- | --- | --- | --- | --- | --- | --- | --- | --- |
| O=C(c1ccccc1)c1ccc2[nH]c(SCC(O)(Cn3cncn3)c3ccc(F)cc3F)nc2c1 (stereo not drawn) | 1 (≈ 2.03 µM) | 1 (≈ 2.03 µM) | 2 (≈ 4.07 µM) | 2 (≈ 4.07 µM) | 2 (≈ 4.07 µM) | 8 (≈ 16.3 µM) | 1 (≈ 2.03 µM) | 1 (≈ 2.03 µM) |  |  |
| OC(CSc1nc2ccccc2s1)(Cn1cncn1)c1ccc(F)cc1 (stereo not drawn) | 32 (≈ 82.8 µM) | 16 (≈ 41.4 µM) | 16 (≈ 41.4 µM) | 8 (≈ 20.7 µM) | > 64 | 8 (≈ 20.7 µM) | > 64 | 16 (≈ 41.4 µM) |  |  |
| OC(CSc1nc2ccccc2[nH]1)(Cn1cncn1)c1ccc(Cl)cc1Cl (stereo not drawn) | 8 (≈ 19 µM) | 8 (≈ 19 µM) | 8 (≈ 19 µM) | 8 (≈ 19 µM) | 8 (≈ 19 µM) | 16 (≈ 38.1 µM) | 16 (≈ 38.1 µM) | 8 (≈ 19 µM) |  |  |
| OC(CSc1nc2ccccc2[nH]1)(Cn1cncn1)c1ccccc1 (stereo not drawn) | > 64 | > 64 | 32 (≈ 91.1 µM) | > 64 | > 64 | 16 (≈ 45.5 µM) | > 64 | 32 (≈ 91.1 µM) |  |  |
| O=C(c1ccccc1)c1ccc2[nH]c(SCC(O)(Cn3cncn3)c3ccc(Cl)cc3)nc2c1 (stereo not drawn) | 0.125 (≈ 0.255 µM) | 0.5 (≈ 1.02 µM) | < 0.063 | 0.5 (≈ 1.02 µM) | < 0.063 | 1 (≈ 2.04 µM) | 0.125 (≈ 0.255 µM) | < 0.063 | Toxic | Toxic |
| O=C(c1ccccc1)c1ccc2[nH]c(SCC(O)(Cn3cncn3)c3ccccc3)nc2c1 (stereo not drawn) | 2 (≈ 4.39 µM) | 4 (≈ 8.78 µM) | 2 (≈ 4.39 µM) | 4 (≈ 8.78 µM) | 8 (≈ 17.6 µM) | 8 (≈ 17.6 µM) | 4 (≈ 8.78 µM) | 8 (≈ 17.6 µM) |  |  |
| OC(CSc1nc2ccccc2s1)(Cn1cncn1)c1ccccc1 (stereo not drawn) | 16 (≈ 43.4 µM) | 16 (≈ 43.4 µM) | 8 (≈ 21.7 µM) | 16 (≈ 43.4 µM) | 32 (≈ 86.8 µM) | 32 (≈ 86.8 µM) | 32 (≈ 86.8 µM) | 16 (≈ 43.4 µM) |  |  |
| OC(CSc1nc2ccccc2[nH]1)(Cn1cncn1)c1ccc(Cl)cc1 (stereo not drawn) | 16 (≈ 41.5 µM) | 8 (≈ 20.7 µM) | 16 (≈ 41.5 µM) | 8 (≈ 20.7 µM) | 4 (≈ 10.4 µM) | 16 (≈ 41.5 µM) | 16 (≈ 41.5 µM) | 8 (≈ 20.7 µM) |  |  |
| O=C(c1ccccc1)c1ccc2[nH]c(SCC(O)(Cn3cncn3)c3ccc(Cl)cc3Cl)nc2c1 (stereo not drawn) | 1 (≈ 1.91 µM) | 1 (≈ 1.91 µM) | 2 (≈ 3.81 µM) | 0.5 (≈ 0.953 µM) | 0.063 (≈ 0.12 µM) | 2 (≈ 3.81 µM) | 1 (≈ 1.91 µM) | 0.125 (≈ 0.238 µM) |  |  |
| O=C(c1ccccc1)c1ccc2[nH]c(SCC(O)(Cn3cncn3)c3ccc(F)cc3)nc2c1 (stereo not drawn) | 32 (≈ 67.6 µM) | 8 (≈ 16.9 µM) | > 64 | 8 (≈ 16.9 µM) | 16 (≈ 33.8 µM) | 16 (≈ 33.8 µM) | > 64 | 16 (≈ 33.8 µM) |  |  |
| OC(CSc1nc2ccccc2[nH]1)(Cn1cncn1)c1ccc(F)cc1F (stereo not drawn) | 32 (≈ 82.6 µM) | > 64 | > 64 | > 64 | > 64 | > 64 | > 64 | 32 (≈ 82.6 µM) |  |  |
| OC(CSc1nc2ccccc2s1)(Cn1cncn1)c1ccc(F)cc1F (stereo not drawn) | > 64 | 32 (≈ 79.1 µM) | > 64 | 16 (≈ 39.6 µM) | > 64 | 32 (≈ 79.1 µM) | > 64 | > 64 |  |  |
| OC(CSc1nc2ccccc2s1)(Cn1cncn1)c1ccc(Cl)cc1 (stereo not drawn) | 4 (≈ 9.93 µM) | 4 (≈ 9.93 µM) | 8 (≈ 19.9 µM) | 4 (≈ 9.93 µM) | 8 (≈ 19.9 µM) | 2 (≈ 4.96 µM) | 8 (≈ 19.9 µM) | 4 (≈ 9.93 µM) |  |  |
| OC(CSc1nc2ccccc2s1)(Cn1cncn1)c1ccc(Cl)cc1Cl (stereo not drawn) | 16 (≈ 36.6 µM) | 8 (≈ 18.3 µM) | 16 (≈ 36.6 µM) | 16 (≈ 36.6 µM) | 8 (≈ 18.3 µM) | 16 (≈ 36.6 µM) | 16 (≈ 36.6 µM) | 8 (≈ 18.3 µM) |  |  |
| OC(CSc1nc2ccccc2[nH]1)(Cn1cncn1)c1ccc(F)cc1 (stereo not drawn) | 0.125 (≈ 0.338 µM) | 0.25 (≈ 0.677 µM) | < 0.063 | 0.125 (≈ 0.338 µM) | 0.063 (≈ 0.171 µM) | 1 (≈ 2.71 µM) | 0.125 (≈ 0.338 µM) | < 0.063 | Toxic | Toxic |
| O=[N+]([O-])c1ccc2[nH]c(SCC(O)(Cn3cncn3)c3ccc(F)cc3F)nc2c1 (stereo not drawn) | 32 (≈ 74 µM) | > 64 | > 64 | > 64 | 32 (≈ 74 µM) | > 64 | > 64 | 32 (≈ 74 µM) |  |  |
| OC(c1ccccc1)c1ccc2[nH]c(SCC(O)(Cn3cncn3)c3ccccc3)nc2c1 (stereo not drawn) | 8 (≈ 17.5 µM) | 8 (≈ 17.5 µM) | 4 (≈ 8.74 µM) | 8 (≈ 17.5 µM) | 2 (≈ 4.37 µM) | 16 (≈ 35 µM) | 8 (≈ 17.5 µM) | 2 (≈ 4.37 µM) |  |  |
| OC(Cn1cncn1)(Cn1cncn1)c1ccc(F)cc1F [FLUCONAZOLE] | 0.5 (≈ 1.63 µM) | 0.25 (≈ 0.816 µM) | 0.5 (≈ 1.63 µM) | 0.25 (≈ 0.816 µM) | 0.5 (≈ 1.63 µM) | 2 (≈ 6.53 µM) | 1 (≈ 3.27 µM) | 0.25 (≈ 0.816 µM) |  |  |

— ChEMBL document CHEMBL5352496, “Design, synthesis and biological activity of hybrid antifungals derived from fluconazole and mebendazole” (Eur J Med Chem, 2023)
